Assay results as given in article PMC6804243, “Small-Molecule Inhibition of UBE2T/FANCL-Mediated Ubiquitylation in the Fanconi Anemia Pathway” (ACS Chemical Biology, 2019).

Experiments:
[1] = system: mUb-H2A and total protein ubiquitylation; assay: Immunoblot of widespread cellular ubiquitylation (mUb-H2A, FK2 antibody); type: cell-based; settings: U2OS; CU1 200 μM or CU2 500 μM; with or without HU 2.5 mM, 8 h
Experimental: Figure 3 Cell-based assays with CU1 and CU2: (a) Western blot showing that the formation of mUb-FANCD2(*), in response to HU treatment (2.5 mM, 8 h), is impaired in U2OS cells in the presence of CU1 (200 μM) or CU2 (500 μM). Ratio = mUb-FANCD2/FANCD2 (normalized to DMSO control). mUb-FANCD2 was resolved on a separate gel. PARP1 was used as a loading control for each gel, as well as to assess apoptosis. (b) Quantification of the reduction in mUb-FANCD2, in response to HU treatment (2.5 mM, 8 h) in the presence of CU1 (200 μM) or CU2 (500 μM). Mean calculated from three independent experiments. […] TEXT PRINTED IN THE PICTURE: (d) DMSO: S-phase 42.7; G1 29.2; G2-M 27.8 | (d) HU: S-phase 0.24; G1 72.4; G2-M 22.9 | (d) CU1: S-phase 43.4; G1 26.8; G2-M 29.1 | (d) CU2: S-phase 39.7; G1 31.9; G2-M 28.2 DOUBTS OF THE COPYIST ABOUT THIS PICTURE: Panel d print is small, so these digits are best readings: DMSO G2-M 27.8 (8 or 6); CU1 G1 26.8 (6 or 8); CU2 S-phase 39.7 (9 or 8); CU2 G2-M 28.2 (8 or 6) / Panels a and c: the lane ratios printed under the western blots (a: 1.0, 0.64, 0.40; c: 1.0/0.65, 1.0/0.63, 1.0/0.53) were left out because they belong to blots and the picture prints no measure for them […]
To investigate if the compounds were affecting more widespread ubiquitylation events in the cell, the monoubiquitylation status of histone H2A was assessed (mUb-H2A; Figure 3a). […]

U2OS cells = assay: IncuCyte cell proliferation assay; type: cell-based
Experimental: Figure 4 Further cell-based assays with CU1 and CU2: (a, b) Representative immunofluorescence images of U2OS cells treated with HU (2.5 mM, 8 h) or cisplatin (10 μM, 8 h) in the presence or absence of CU1 (200 μM) or CU2 (500 μM). (c) Quantification of the number of FANCD2 foci in cells treated as in panels (a) and (b). Data accumulated over three independent experiments, each consisting of three technical replicas. (d) IncuCyte analysis of U2OS cells treated with or without carboplatin (15 μM) and CU2 (250 μM). Mean calculated from three wells, four images per well. (HU = DMSO + HU, cisplatin = DMSO + cisplatin).
Finally, to investigate if CU1 and CU2 could sensitize cells to a more clinically relevant chemotherapeutic agent, quantitative live cell analyses were performed using the IncuCyte platform. As the FA pathway is involved in the repair of ICLs, cells were treated with the ICL-inducing chemotherapeutic drug, carboplatin. For this experiment, U2OS cells were seeded at a relatively low (<10%) density and preincubated with CU1 or CU2 for 1 h. Carboplatin was then added to the cells and images were taken every 6 h for 8 days in order to monitor growth and proliferation of the cells.
Reaction mixtures were incubated for the indicated time at 37 °C and stopped by the addition of 2X reducing SDS -PAGE sample buffer, separated on NuPAGE Novex 4 –12% Bis/Tris gradient gels (Invitrogen) and visualized by Western blotting using the indicated antibodies (Table S3).
Cell culture. U2OS cells were cultured at 37 °C in a humidified atmosphere and 5% (v/v) CO2 in Dulbecco's Modified Eagle Medium (DMEM; Sigma-Aldrich) supplemented with 10% (v/v) fetal bovine serum (FBS), 100 units/ml of penicillin, […] of streptomycin and 292 μg/mL L-glutamine.
Cell extract preparation and immunoblotting. U2OS cells were lysed in buffer containing 50 mM Tris-HCl pH 7.5, 2% SDS, 10 mM NEM, cocktail protease inhibitor (Roche) and phosphatase inhibitor cocktail followed by sonication 100 µg of extracts were boiled for 5 mins at 95 °C in 5X loading buffer and loaded onto NuPAGE Novex 4–12% Bis/Tris gradient gels
(Invitrogen), or NuPAGE Novex 3-8% Tris/Acetate gradient gels (Invitrogen) for detection of mUb-FANCD2. After separation the gels were transferred to PVDF and the membranes were blocked with Tris-buffered saline containing 0.1% (v/v) Tween-20 (TBST) and 5% (v/v) bovine serum albumin (BSA) and incubated with the indicated primary and secondary antibodies. mUb-FANCD2 intensity was quantified using Image Studio (LI-COR).
IncuCyte cell proliferation assays. 2000 U2OS cells were seeded per well in 96-well plates and treated with compounds 24 hours afterwards. After 1 hour of compound treatment, 15 µM carboplatin (Sigma-Aldrich) was added and the cells were cultured in an incubator with an IncuCyte microscopy -platform (Essen BioScience). Phase -contrast images were acquired every 6 hours for 8 days until DMSO-carboplatin treated cells reached >80% confluence. Cell proliferation was monitored as the occupied area (% confluence) of cell images over time and calculated as percentage confluence over time. Cell confluency percentages were calculated using the integrated Cell Player software and results were analysed with Prism 6 (GraphPad Software).

| Compound | total protein ubiquitylation (FK2 antibody) [1] | combined effect with carboplatin on cell growth (U2OS cells; 50 μM CU1 with 15 μM carboplatin) | concentrations that strongly inhibit cell growth (U2OS cells; IncuCyte) | confluency (U2OS cells; 250 μM CU2 combined with 15 μM carboplatin, after 8 days) | effect on cell growth (U2OS cells; CU2 250 μM alone) | confluency (U2OS cells; CU2 250 μM alone, after 6 days) | effect on cells upon longer cellular exposures (U2OS cells; CU2 500 μM, IncuCyte, up to 8 days) |
| --- | --- | --- | --- | --- | --- | --- | --- |
| NCCN1C(=O)CC[C@H]2CN(Cc3cccc(-c4ccco4)c3)CC[C@H]21 [CU1] | do not affect total protein ubiquitylation | far less pronounced than that observed for CU2 | > 50 µM |  |  |  |  |
| CCN1CCN(c2cc(C)nc3nc(CN4CCCCC4C)nn23)CC1 (centres unmarked) [CU2] | do not affect total protein ubiquitylation |  |  | < 50% | minimal effect on cell growth | 100% | cytotoxic/cytostatic |
